Counter-ions that a name gives are not always drawn.
The compounds below were run against T1, CXCR7 (Homo sapiens, UniProt P25106) (assay: PathHunter CHO-K1 CXCR7 b-arrestin recruitment assay (CXCR7 agonistic activity)). Details: PathHunter CHO-K1 CXCR7 b-arrestin cell line.
T1 construct: host or cells: CHO-K1 (PathHunter CHO-K1 CXCR7 b-arrestin cell line, stably transfected)
Assay type: cell-based
Outline: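 Stable CHO-K1 line with C-terminally ProLink-tagged CXCR7 and β-arrestin 2–EA fusion; β-arrestin recruitment restores β-gal activity, read by chemiluminescence after 1 h RT detection. Cells seeded 24 h, starved in OPTIMEM 3–4 h, exposed to compounds 90 min at 37 °C in HBSS/HEPES/BSA. Geometric-mean EC50 from repeated measurements.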

T1 sequence (P25106 whole entry): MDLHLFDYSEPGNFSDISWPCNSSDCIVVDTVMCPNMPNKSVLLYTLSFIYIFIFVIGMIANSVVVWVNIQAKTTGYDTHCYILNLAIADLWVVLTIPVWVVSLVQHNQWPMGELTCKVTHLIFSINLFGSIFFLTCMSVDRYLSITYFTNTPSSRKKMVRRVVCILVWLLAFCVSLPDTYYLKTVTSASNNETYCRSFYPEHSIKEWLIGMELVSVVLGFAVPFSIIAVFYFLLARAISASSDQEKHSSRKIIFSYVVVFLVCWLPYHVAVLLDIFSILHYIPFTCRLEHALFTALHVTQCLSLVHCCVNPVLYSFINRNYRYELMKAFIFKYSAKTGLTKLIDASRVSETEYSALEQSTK
T1 sequence (P32121 whole entry partner): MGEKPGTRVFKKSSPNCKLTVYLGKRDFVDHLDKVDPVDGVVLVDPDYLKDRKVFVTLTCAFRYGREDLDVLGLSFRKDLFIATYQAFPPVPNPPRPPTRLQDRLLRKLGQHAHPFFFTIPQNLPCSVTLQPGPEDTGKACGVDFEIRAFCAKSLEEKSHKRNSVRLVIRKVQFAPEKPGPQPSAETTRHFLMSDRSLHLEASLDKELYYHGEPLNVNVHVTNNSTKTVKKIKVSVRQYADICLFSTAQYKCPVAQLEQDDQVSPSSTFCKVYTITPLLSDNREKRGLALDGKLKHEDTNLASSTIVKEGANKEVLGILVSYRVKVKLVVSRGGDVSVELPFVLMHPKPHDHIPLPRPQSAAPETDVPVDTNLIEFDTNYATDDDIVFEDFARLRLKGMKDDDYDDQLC

| EC50 [nM] | Compound |
| --- | --- |
| 80 | CN(C)CCN(Cc1ccccc1C(F)(F)F)C(=O)CNc1cccc2c1CN(S(=O)(=O)c1ccccc1)CC2 [compound 545] |
| 26 | CN(C)CCN(Cc1ccccc1C(F)(F)F)C(=O)CNc1cccc2c1CCN(CC1(C)COC1)C2 [Example 358, N-(2-Dimethylamino-ethyl)-2-[2-(3-methyl-oxetan-3-ylmethyl)-1,2,3,4-tetrahydro-isoquinolin-5-ylamino]-N-(2-trifluoromethyl-benzyl)-acetamide] |
| 230 | CN(C)CCN(Cc1ccccc1)C(=O)CNc1cccc2c1CCN(C(=O)OC(C)(C)C)C2 [Example 8, 5-({[Benzyl-(2-dimethylamino-ethyl)-carbamoyl]-methyl}-amino)-3,4-dihydro-1H-isoquinoline-2-carboxylic acid tert-butyl ester] |
| 47 | CN1CCCC1CCN(Cc1ccccc1)C(=O)Cc1cccc2c1CCN(CC1CC1)C2 (racemic) [Example 4, rac-N-Benzyl-2-(2-cyclopropylmethyl-1,2,3,4-tetrahydro-isoquinolin-5-yl)-N-[2-(1-methyl-pyrrolidin-2-yl)-ethyl]-acetamide] |
| 23 | CN(C)CCN(Cc1ccccc1)C(=O)/C=C/c1cccc2c1CCN(C)C2 [compound 142, (E)-N-Benzyl-N-(2-dimethylamino-ethyl)-3-(2-methyl-1,2,3,4-tetrahydro-isoquinolin-5-yl)-acrylamide] |
| 12 | C=CCN1CCc2c(CCC(=O)N(CCN(C)C)Cc3ccccc3C(F)(F)F)cccc2C1 [Example 349, 3-(2-Allyl-1,2,3,4-tetrahydro-isoquinolin-5-yl)-N-(2-dimethylamino-ethyl)-N-(2-trifluoromethyl-benzyl)-propionamide] |
| 33 | CN(C)CCN(Cc1ccc(F)cn1)C(=O)CNc1cccc2c1CCN(CC1CC1)C2 [Example 267, 2-(2-Cyclopropylmethyl-1,2,3,4-tetrahydro-isoquinolin-5-ylamino)-N-(2-dimethylamino-ethyl)-N-(5-fluoro-pyridin-2-ylmethyl)-acetamide] |
| 179 | CC(C)(C)CCN(Cc1ccccc1C(F)(F)F)C(=O)CNc1cccc2c1CCN(CC1CC1)C2 [Example 274, 2-(2-Cyclopropylmethyl-1,2,3,4-tetrahydro-isoquinolin-5-ylamino)-N-(3,3-dimethyl-butyl)-N-(2-trifluoromethyl-benzyl)-acetamide] |
| 4 | CN(C)CCN(Cc1ccccc1C(F)(F)F)C(=O)CNc1cccc2c1CN(C(=O)c1ccccc1)CC2 [compound 552, 2-(2-Benzoyl-1,2,3,4-tetrahydro-isoquinolin-8-ylamino)-N-(2-dimethylamino-ethyl)-N-(2-trifluoromethyl-benzyl)-acetamide] |
| 36 | CCN1CCc2cccc(NCC(=O)N(CCN3CCCC3)Cc3ccccc3)c2C1 [compound 509, N-Benzyl-2-(2-ethyl-1,2,3,4-tetrahydro-isoquinolin-8-ylamino)-N-(2-pyrrolidin-1-yl-ethyl)-acetamide] |
| 40 | COC(=O)CN1CCc2c(cccc2NCC(=O)N(CCN(C)C)Cc2ncccc2C(F)(F)F)C1 [Example 370, [5-({[(2-Dimethylamino-ethyl)-(3-trifluoromethyl-pyridin-2-ylmethyl)-carbamoyl]-methyl}-amino)-3,4-dihydro-1H-isoquinolin-2-yl]-acetic acid methyl ester] |
| 9 | CNCCN(Cc1ncccc1Cl)C(=O)CNc1cccc2c1CCN(CC1CC1)C2 [compound 436, N-(3-Chloro-pyridin-2-ylmethyl)-2-(2-cyclopropylmethyl-1,2,3,4-tetrahydro-isoquinolin-5-ylamino)-N-(2-methylamino-ethyl)-acetamide] |
| 3 | O=C(CNc1cccc2c1CCN(CC1CC1)C2)N(Cc1ccccc1C(F)(F)F)C[C@@H]1CCNC1 [compound 379] |
| 80 | CCC(=O)N1CCc2c(cccc2NCC(=O)N(CCN(C)C)Cc2ccc(F)cc2)C1 [Example 22, N-(2-Dimethylamino-ethyl)-N-(4-fluoro-benzyl)-2-(2-propionyl-1,2,3,4-tetrahydro-isoquinolin-5-ylamino)-acetamide] |
| 15 | CNC(=O)N1CCc2cccc(NCC(=O)N(CCN(C)C)Cc3ccccc3C(F)(F)F)c2C1 [Example 547, 8-({[(2-Dimethylamino-ethyl)-(2-trifluoromethyl-benzyl)-carbamoyl]-methyl}-amino)-3,4-dihydro-1H-isoquinoline-2-carboxylic acid methylamide] |
| 432 | CC(C)(C)OC(=O)N1CCc2c(/C=C/C(=O)N(Cc3ccccc3)C3CCS(=O)(=O)C3)cccc2C1 (stereo not drawn) [Example 95, 5-{(E)-2-[Benzyl-(1,1-dioxo-tetrahydro-1l6-thiophen-3-yl)-carbamoyl]-vinyl}-3,4-dihydro-1H-isoquinoline-2-carboxylic acid tert-butyl ester] |
| 120 | CNCCN(Cc1ncccc1C(F)(F)F)C(=O)CNc1cccc2c1CCN(C(=O)OCC(C)(C)C)C2 [compound 428] |

| EC50 [nM] | Compound |
| --- | --- |
| 58 | CCN1CCc2cccc(NCC(=O)N(CCN(C)C)Cc3ccc(F)cc3C(F)(F)F)c2C1 [compound 523] |
| 5 | CN1CCCC1CCN(Cc1ccccc1)C(=O)CNc1cccc2c1CCN(CC1CC1)C2 (racemic) [Example 42, rac-N-Benzyl-2-(2-cyclopropylmethyl-1,2,3,4-tetrahydro-isoquinolin-5-ylamino)-N-[2-(1-methyl-pyrrolidin-2-yl)-ethyl]-acetamide] |
| 23 | CC(C)CN1Cc2cccc(NCC(=O)N(CCN3CCCC3)Cc3ccccc3C(F)(F)F)c2CC1=O [Example 314, 2-(2-Isobutyl-3-oxo-1,2,3,4-tetrahydro-isoquinolin-5-ylamino)-N-(2-pyrrolidin-1-yl-ethyl)-N-(2-trifluoromethyl-benzyl)-acetamide] |
| 11 | CN(C)CCN(Cc1ccccc1C(F)(F)F)C(=O)CNc1c(Cl)ccc2c1CCN(CC1CC1)C2 [Example 88, 2-(6-Chloro-2-cyclopropylmethyl-1,2,3,4-tetrahydro-isoquinolin-5-ylamino)-N-(2-dimethylamino-ethyl)-N-(2-trifluoromethyl-benzyl)-acetamide] |
| 54 | NC(=O)CCN(Cc1ccccc1)C(=O)/C=C/c1cccc2c1CCN(CC1CC1)C2 [Example 140, (E)-N-Benzyl-N-(2-carbamoyl-ethyl)-3-(2-cyclopropylmethyl-1,2,3,4-tetrahydro-isoquinolin-5-yl)-acrylamide dihydrochloride] |
| 3 | CCNCCN(Cc1ccccc1C(F)(F)F)C(=O)CNc1cccc2c1CCN(CC1CC1)C2 [compound 439, 2-(2-Cyclopropylmethyl-1,2,3,4-tetrahydro-isoquinolin-5-ylamino)-N-(2-ethylamino-ethyl)-N-(2-trifluoromethyl-benzyl)-acetamide] |
| 12 | CCCC(=O)N1CCc2c(cccc2NCC(=O)N(CCNC)Cc2ccccc2C(F)(F)F)C1 [compound 386, 2-(2-Butyryl-1,2,3,4-tetrahydro-isoquinolin-5-ylamino)-N-(2-methylamino-ethyl)-N-(2-trifluoromethyl-benzyl)-acetamide] |
| 23 | CC(C)(O)CN(Cc1ncccc1Cl)C(=O)/C=C/c1cccc2c1CCN(CC1CC1)C2 [Example 329, (E)-N-(3-Chloro-pyridin-2-ylmethyl)-3-(2-cyclopropylmethyl-1,2,3,4-tetrahydro-isoquinolin-5-yl)-N-(2-hydroxy-2-methyl-propyl)-acrylamide] |
| 41 | O=C(CNc1cccc2c1CN(CC1CC1)CC2)N(CCN1CCC(F)(F)C1)Cc1ncccc1C(F)(F)F [compound 481, 2-(2-Cyclopropylmethyl-1,2,3,4-tetrahydro-isoquinolin-8-ylamino)-N-[2-(3,3-difluoro-pyrrolidin-1-yl)-ethyl]-N-(3-trifluoromethyl-pyridin-2-ylmethyl)-acetamide] |
| 79 | CCOC(=O)N1CCc2c(cccc2NCC(=O)N(CCN(C)C)Cc2ccccc2)C1 [compound 117] |
| 326 | CCOC(=O)CN(Cc1ccccc1)C(=O)CNc1cccc2c1CCN(CC1CC1)C2 [Example 71, {Benzyl-[2-(2-cyclopropylmethyl-1,2,3,4-tetrahydro-isoquinolin-5-ylamino)-acetyl]-amino}-acetic acid ethyl ester] |
| 110 | COC(=O)N1CCc2cccc(NCC(=O)N(CCN(C)C)Cc3ccccc3)c2C1 [Example 190, 8-({[Benzyl-(2-dimethylamino-ethyl)-carbamoyl]-methyl}-amino)-3,4-dihydro-1H-isoquinoline-2-carboxylic acid methyl ester] |
| 47 | CCn1ccc(C(C)N(Cc2ccccc2C(F)(F)F)C(=O)CNc2cccc3c2CCN(CC2CC2)C3)n1 (racemic) [Example 80, rac-2-(2-Cyclopropylmethyl-1,2,3,4-tetrahydro-isoquinolin-5-ylamino)-N-[1-(1-ethyl-1H-pyrazol-3-yl)-ethyl]-N-(2-trifluoromethyl-benzyl)-acetamide] |
| 457 | COCCN1CCc2c(CCC(=O)N(Cc3ccccc3C(F)(F)F)CC(O)COC)cccc2C1 (stereo not drawn) [Example 339, N-(2-Hydroxy-3-methoxy-propyl)-3-[2-(2-methoxy-ethyl)-1,2,3,4-tetrahydro-isoquinolin-5-yl]-N-(2-trifluoromethyl-benzyl)-propionamide] |
| 25 | CN(C)CCN(CCc1ccccc1)C(=O)CNc1cccc2c1CCN(CC1CC1)C2 [Example 36, 2-(2-Cyclopropylmethyl-1,2,3,4-tetrahydro-isoquinolin-5-ylamino)-N-(2-dimethylamino-ethyl)-N-phenethyl-acetamide] |
| 16 | Cc1csc(CN(CCN(C)C)C(=O)CNc2cccc3c2CCN(CC2CC2)C3)n1 [Example 266, 2-(2-Cyclopropylmethyl-1,2,3,4-tetrahydro-isoquinolin-5-ylamino)-N-(2-dimethylamino-ethyl)-N-(4-methyl-thiazol-2-ylmethyl)-acetamide] |
